Results on 32 compounds are retold here after ChEMBL document CHEMBL1143289, “Potent and selective adenosine A2A receptor antagonists: 1,2,4-Triazolo[1,5-c]pyrimidines” (Bioorg Med Chem Lett, 2009).

As a reminder, the Ki is a dissociation constant, usually derived from enzyme kinetics or from competition with a known ligand. As a reminder, the AUC is the area under the concentration-time curve, a measure of exposure.

One data set deals with Adenosine receptor A2a (Homo sapiens, UniProt P29274). Kind of data set: Displacement of [3H]SCH58261 from human adenosine A2A receptor expressed in HEK293 cells. Format: cell-based.
The species named for the next data set is Homo sapiens. Kind of data set: Selectivity for human adenosine A1 receptor over human adenosine A2A receptor.
Data set [1] in a line: AUC in rat plasma at 3 mg/kg, po. Format: ADME, organism-based. Also on record: dose 3 mg/kg, route oral.
The test system of data set [2] is Rattus norvegicus. Kind of data set: Inhibition of haloperidol-induced catalepsy in rat at 3 mg/kg, po after 4 hrs. Format: functional.
Data set [3] deals with Rattus norvegicus. In words: Inhibition of haloperidol-induced catalepsy in rat at 1 mg/kg, po after 1 hr. The class given is functional.
Data set [4] relates to Rattus norvegicus. In words: Inhibition of haloperidol-induced catalepsy in rat at 1 mg/kg, po after 4 hrs. Format: functional.
The test system of data set [5] is Rattus norvegicus. Kind of data set: Inhibition of haloperidol-induced catalepsy in rat at 3 mg/kg, po after 1 hr. Format: functional.
In data set [6] the test system is Rattus norvegicus. Kind of data set: Inhibition of haloperidol-induced catalepsy in rat at 0.3 mg/kg, po after 1 hr. Further details: scale not given: the % may be the effect or the level left.
Data set [7] deals with Rattus norvegicus. Kind of data set: Inhibition of haloperidol-induced catalepsy in rat at 0.3 mg/kg, po after 1 hr. Format: functional. The conditions noted are these: read-out: INH.
The test system of data set [8] is Rattus norvegicus. Kind of data set: Inhibition of haloperidol-induced catalepsy in rat at 0.3 mg/kg, po after 4 hrs. The conditions noted are these: read-out: INH. The class given is functional.
In data set [9] the test system is Rattus norvegicus. Kind of data set: Inhibition of haloperidol-induced catalepsy in rat at 0.1 mg/kg, po after 1 hr. The class given is functional. The conditions noted are these: read-out: INH.
For data set [10], the system named is Rattus norvegicus. Kind of data set: Inhibition of haloperidol-induced catalepsy in rat at 0.1 mg/kg, po after 4 hrs. The class given is functional.

Sequence of Adenosine receptor A2a (P29274 whole entry): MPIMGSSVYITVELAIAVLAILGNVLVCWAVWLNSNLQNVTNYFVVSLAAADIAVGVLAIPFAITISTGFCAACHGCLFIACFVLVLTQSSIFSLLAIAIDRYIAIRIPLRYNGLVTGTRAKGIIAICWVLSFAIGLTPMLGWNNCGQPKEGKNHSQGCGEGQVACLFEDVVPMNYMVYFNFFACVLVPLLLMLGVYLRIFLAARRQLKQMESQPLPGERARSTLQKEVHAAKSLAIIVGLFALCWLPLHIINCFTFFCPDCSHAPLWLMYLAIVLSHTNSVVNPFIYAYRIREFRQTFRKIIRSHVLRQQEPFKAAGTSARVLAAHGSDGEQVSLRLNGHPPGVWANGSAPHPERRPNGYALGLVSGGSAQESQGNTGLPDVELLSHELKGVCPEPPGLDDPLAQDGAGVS

With `Nc1nc(N(CCN2CCN(c3ccc(F)cc3F)CC2)CC2CC2)cc2nc(-c3ccco3)nn12`, the Ki on Adenosine receptor A2a worked out at 0.3 nM. For the same compound, in the data set filed under Homo sapiens, the Ratio was found to be 831. This compound also yielded an AUC in data set [1] of 17 ng·h/mL. Besides, the inhibition in vivo at 3 mg/kg turned out to be 41% in the data set on Rattus norvegicus [2] and 65% in the data set with Rattus norvegicus [5]. Moreover, the figures for the inhibition in vivo at 1 mg/kg in the data set with Rattus norvegicus [3] and with Rattus norvegicus [4] were 40% and 34%, respectively.

With `CN(CCc1ccc(F)cc1)c1cc2nc(-c3ccco3)nn2c(N)n1`, the affinity on Adenosine receptor A2a corresponds to a Ki of 2 nM. Further, in the data set listed under Homo sapiens, the Ratio was 248.

The compound `Nc1nc(NCCN2CCN(c3ccc(F)cc3F)CC2)cc2nc(-c3ccco3)nn12` showed an inhibition constant Ki on Adenosine receptor A2a of 1.5 nM. Moreover, in the data set listed under Homo sapiens, the Ratio was found to be 262.

`CN(CCN1CCN(c2ccc(F)cc2F)CC1)c1cc2nc(-c3ccco3)nn2c(N)n1` displayed an inhibitory constant (Ki) at Adenosine receptor A2a of 1 nM. The Ratio in the data set listed under Homo sapiens amounted to 1580. Also, in data set [1], the AUC came to 53 ng·h/mL. The inhibition in vivo at 3 mg/kg with Rattus norvegicus [2] amounted to 35%; in the data set on Rattus norvegicus [5], 75%. Also, the figures for the inhibition in vivo at 1 mg/kg in the data set on Rattus norvegicus [3] and in the data set on Rattus norvegicus [4] were 50% and 30%, respectively.

With `COCCOc1ccc(N2CCN(CCOc3cc4nc(-c5ccco5)nn4c(N)n3)CC2)cc1`, the Ki at Adenosine receptor A2a was 2.8 nM. For the same compound, the Ratio in the data set filed under Homo sapiens is 405. In addition, in data set [1], the AUC is 943 ng·h/mL. The inhibition in vivo at 1 mg/kg with Rattus norvegicus [3] and in the data set on Rattus norvegicus [4] was 25% each time.

On to `COc1ccc(CCNc2cc3nc(-c4ccco4)nn3c(N)n2)cc1`, for which, on Adenosine receptor A2a, the inhibition constant (Ki) was 5.8 nM. For the same compound, the Ratio in the data set filed under Homo sapiens turned out to be 20.

At Adenosine receptor A2a, `CCN(CCc1ccc(F)cc1)c1cc2nc(-c3ccco3)nn2c(N)n1` returned a Ki of 3 nM. In addition, in the data set filed under Homo sapiens, the Ratio is 525.

Consider `COCCN(CCc1ccc(F)cc1)c1cc2nc(-c3ccco3)nn2c(N)n1`, for which the Ki on Adenosine receptor A2a was 1 nM. Also, the Ratio in the data set filed under Homo sapiens stood at 566.

With `Nc1nc(SCCN2CCN(c3ccc(F)cc3F)CC2)cc2nc(-c3ccco3)nn12`, affinity on Adenosine receptor A2a was put at a Ki of 1.4 nM. The Ratio in the data set listed under Homo sapiens turned out to be 365. The compound also returned an AUC in [1] of 229 ng·h/mL. For the same compound, the inhibition in vivo at 3 mg/kg in the data set with Rattus norvegicus [2] stood at 45%; in the data set on Rattus norvegicus [5], 50%. Also, the inhibition in vivo at 1 mg/kg in the data set with Rattus norvegicus [3] amounted to 50%; with Rattus norvegicus [4], 5%.

The compound `Nc1nc(OCCN2CCN(c3ccc(F)cc3F)CC2)cc2nc(-c3ccco3)nn12` came in with a Ki on Adenosine receptor A2a of 6 nM. The Ratio in the data set listed under Homo sapiens stood at 275. Moreover, the AUC in data set [1] worked out at 187 ng·h/mL. Besides, the inhibition in vivo at 3 mg/kg in the data set on Rattus norvegicus [2] worked out at 0%; in the data set with Rattus norvegicus [5], 25%. Besides, the inhibition in vivo at 1 mg/kg in the data set on Rattus norvegicus [3] amounted to 45%.

Compound `COCCOc1ccc(N2CCN(CCN(CCOC)c3cc4nc(-c5ccco5)nn4c(N)n3)CC2)cc1` registered a Ki on Adenosine receptor A2a of 0.7 nM. The Ratio in the data set listed under Homo sapiens turned out to be 338. In data set [1], this compound came in with an AUC of 355 ng·h/mL. For the same compound, the inhibition in vivo at 3 mg/kg with Rattus norvegicus [2] is 37%; in the data set on Rattus norvegicus [5], 57%. Besides, the inhibition in vivo at 1 mg/kg was 29% in the data set with Rattus norvegicus [3] and 6% in the data set on Rattus norvegicus [4].

Take `COCCOc1ccc(N2CCN(CCN(C)c3cc4nc(-c5cccc(C#N)c5)nn4c(N)n3)CC2)cc1`: the affinity at Adenosine receptor A2a, expressed as Ki, was 0.7 nM. In addition, in the data set filed under Homo sapiens, the Ratio was 1070. For the same compound, the AUC in [1] was 546 ng·h/mL. Moreover, the inhibition in vivo at 3 mg/kg in the data set with Rattus norvegicus [2] is 31%; in the data set on Rattus norvegicus [5] it was 29%.

Regarding `CN(CCN1CCN(c2ccc(F)cc2F)CC1)c1cc2nc(-c3cccc(C#N)c3)nn2c(N)n1`, the Ki at Adenosine receptor A2a turned out to be 1.8 nM. For the same compound, the Ratio in the data set listed under Homo sapiens was determined as 620. Further, in [1], the AUC amounted to 1300 ng·h/mL. The inhibition in vivo at 3 mg/kg was 14% in the data set on Rattus norvegicus [2] and 35% with Rattus norvegicus [5].

As for `COc1ccc(CCCc2cc3nc(-c4ccco4)nn3c(N)n2)cc1`, at Adenosine receptor A2a, the Ki came out at 11.5 nM. Also, the Ratio in the data set filed under Homo sapiens was determined as 31.

`COc1ccc(CCOc2cc3nc(-c4ccco4)nn3c(N)n2)cc1` displayed an inhibition constant (Ki) at Adenosine receptor A2a of 2.8 nM. For the same compound, the Ratio in the data set listed under Homo sapiens was found to be 58.

In turn, `CN(CCN1CCN(c2ccc(F)cc2F)CC1)c1cc2nc(-c3cnco3)nn2c(N)n1` showed a Ki at Adenosine receptor A2a of 0.3 nM. In addition, the Ratio in the data set filed under Homo sapiens worked out at 7000.

In turn, `COc1ccc(CCSc2cc3nc(-c4ccco4)nn3c(N)n2)cc1` registered an inhibition constant (Ki) on Adenosine receptor A2a of 1.6 nM. Further, in the data set filed under Homo sapiens, the Ratio was 58.

`COCCOc1ccc(N2CCN(CCN(C)c3cc4nc(-c5ccco5)nn4c(N)n3)CC2)cc1` returned a Ki at Adenosine receptor A2a of 2.5 nM. Moreover, in the data set listed under Homo sapiens, the Ratio amounted to 694. The compound also came in with an area under the curve (AUC) in data set [1] of 521 ng·h/mL. The inhibition in vivo at 1 mg/kg with Rattus norvegicus [3] came to 15%; in the data set on Rattus norvegicus [4], 0%.

For `COCCN(CCN1CCN(c2ccc(F)cc2F)CC1)c1cc2nc(-c3ccco3)nn2c(N)n1`, on Adenosine receptor A2a, affinity was put at a Ki of 0.5 nM. In addition, in the data set listed under Homo sapiens, the Ratio came to 1060. For the same compound, the results for the inhibition in vivo at 3 mg/kg in the data set with Rattus norvegicus [2] and with Rattus norvegicus [5] were 57% and 56%, respectively.

For `CCN(CCN1CCN(c2ccc(F)cc2F)CC1)c1cc2nc(-c3ccco3)nn2c(N)n1`, the affinity on Adenosine receptor A2a corresponds to a Ki of 0.9 nM. In addition, in the data set listed under Homo sapiens, the Ratio amounted to 312. Moreover, the AUC in data set [1] was 50 ng·h/mL.

As for `CCN(CCN1CCN(c2ccc(OCCOC)cc2)CC1)c1cc2nc(-c3ccco3)nn2c(N)n1`, the Ki on Adenosine receptor A2a was determined as 1.5 nM. In the data set filed under Homo sapiens, the Ratio was determined as 102. In addition, the area under the curve (AUC) in [1] came to 230 ng·h/mL.

`COCCOc1ccc(N2CCN(CCN(C)c3cc4nc(-c5ccccc5)nn4c(N)n3)CC2)cc1`: the inhibition constant Ki on Adenosine receptor A2a amounted to 25 nM. The Ratio in the data set listed under Homo sapiens is 56.

The compound `Cc1nccnc1-c1nc2cc(N(C)CCN3CCN(c4ccc(F)cc4F)CC3)nc(N)n2n1` showed an inhibitory constant (Ki) on Adenosine receptor A2a of 0.3 nM. Also, the Ratio in the data set filed under Homo sapiens was 7370.

In turn, `COc1ccc(CCCN(C)c2cc3nc(-c4ccco4)nn3c(N)n2)cc1` yielded a Ki on Adenosine receptor A2a of 5.7 nM. For the same compound, the Ratio in the data set listed under Homo sapiens was found to be 76.

Take `COc1ccc(CCN(C)c2cc3nc(-c4ccco4)nn3c(N)n2)cc1`: the affinity at Adenosine receptor A2a, expressed as Ki, was 1.8 nM. Also, the Ratio in the data set filed under Homo sapiens amounted to 473.

With `Nc1nc2c(cnn2CCN2CCN(c3ccc(F)cc3F)CC2)c2nc(-c3ccco3)nn12`, the inhibition in vivo at 1 mg/kg in the data set on Rattus norvegicus [3] is 75%; in the data set with Rattus norvegicus [4], 80%. The compound also had an Activity with Rattus norvegicus [6] of 75%.

On Adenosine receptor A2a, `COCCOc1ccc(N2CCN(CCNc3cc4nc(-c5ccco5)nn4c(N)n3)CC2)cc1` registered an inhibition constant Ki of 9.5 nM. Besides, the Ratio in the data set listed under Homo sapiens came to 145. In data set [1], this compound yielded an AUC of 103 ng·h/mL.

With `COCCOc1ccc(N2CCN(CCSc3cc4nc(-c5ccco5)nn4c(N)n3)CC2)cc1`, on Adenosine receptor A2a, the Ki worked out at 1.5 nM. The Ratio in the data set filed under Homo sapiens came to 965. Besides, the area under the curve (AUC) in [1] stood at 910 ng·h/mL. In addition, the inhibition in vivo at 3 mg/kg with Rattus norvegicus [2] and with Rattus norvegicus [5] was 65% each time. The inhibition in vivo at 1 mg/kg with Rattus norvegicus [3] amounted to 50%; with Rattus norvegicus [4], 15%.

Take `COCCOc1ccc(N2CCN(CCN(CC3CC3)c3cc4nc(-c5ccco5)nn4c(N)n3)CC2)cc1`: the Ki at Adenosine receptor A2a worked out at 0.8 nM. Moreover, the Ratio in the data set listed under Homo sapiens was 234. For the same compound, in data set [1], the AUC was found to be 245 ng·h/mL. Besides, the inhibition in vivo at 3 mg/kg was 77% with Rattus norvegicus [2] and 65% with Rattus norvegicus [5]. For the same compound, the results for the inhibition in vivo at 1 mg/kg in the data set on Rattus norvegicus [3] and in the data set on Rattus norvegicus [4] were 7% and 32%, respectively.

Regarding `COCCOc1ccc(N2CCN(CCOc3cc4nc(-c5ccc(Cl)o5)nn4c(N)n3)CC2)cc1`, on Adenosine receptor A2a, the Ki amounted to 40 nM. Also, in the data set filed under Homo sapiens, the Ratio is 40. Also, the exposure (AUC) in [1] came to 6 ng·h/mL.

Regarding `COc1ccc(CN(C)c2cc3nc(-c4ccco4)nn3c(N)n2)cc1`, on Adenosine receptor A2a, the Ki worked out at 46 nM. Also, the Ratio in the data set filed under Homo sapiens turned out to be 40.

As to `COCCOc1ccc(N2CCN(CCn3ncc4c3nc(N)n3nc(-c5ccco5)nc43)CC2)cc1` [PRELADENANT], the inhibition in vivo at 1 mg/kg turned out to be 77% in the data set on Rattus norvegicus [3] and 70% in the data set with Rattus norvegicus [4]. Also, the inhibition in vivo at 0.3 mg/kg in the data set with Rattus norvegicus [7] and in the data set on Rattus norvegicus [8] was 60% each time. The inhibition in vivo at 0.1 mg/kg with Rattus norvegicus [9] is 25%; in the data set with Rattus norvegicus [10] it was 60%.
